Legend:
[1] = Inhibitory activity against sweet almond Beta-glucosidase
[2] = as above; remark: listed apart in the source

Row | Ki [1] [mM] | Ki [2] [mM] | Structure (SMILES)
1 | 14.8 | – | OC[C@H]1OC[C@@H](O)[C@H]1O [(2R,3R,4R)-2-Hydroxymethyl-tetrahydro-furan-3,4-diol]
2 | 36.2 | – | OC[C@H]1OC[C@@H](O)[C@@H]1O [(2R,3S,4R)-2-Hydroxymethyl-tetrahydro-furan-3,4-diol]
3 | 60 | – | OC[C@H]1OC[C@H](O)[C@@H](O)[C@@H]1O [(2R,3S,4R,5S)-2-(hydroxymethyl)oxane-3,4,5-triol]

Continued, molecule first:

Row | Structure (SMILES) | Ki [1] [mM] | Ki [2] [mM]
4 | O[C@H]1[C@H](O)COC[C@@H]1O [(3S,4R,5R)-Tetrahydro-pyran-3,4,5-triol] | 39 | –
5 | NCCc1cn(C(=O)c2ccccc2)cn1 [[4-(2-Amino-ethyl)-imidazol-1-yl]-phenyl-methanone] | – | 0.00011

Reference: BindingDB's records for doi:10.1016/S0960-894X(01)81044-1 (1991)
